We go through one compound from patent US9889104B2, “Agent for treating diabetes” (NISHIZAKI BIOINFORMATION RESEARCH INSTITUTE, priority 2014, dated 2018).

The test system of assay [1] is GLUT4. In words: GLUT4 mobilization monitoring (Western blotting with anti-c-myc antibody). It is filed as cell-based. To be noted: 100 nM DCP-LA, 20 min; c-myc signal in cellular membrane fraction/total cell; FIG. 2. As to the method: (§1) 3T3L1-GLUT4myc fibroblast strain expressing GLUT4myc was used. The cells are constructed by inserting human c-MYC epitope (14 amino acids) into the first ectodomain. It is possible to track transport of GLUT4 onto cell membrane surface by using an antic-myc antibody.
The cells were cultured in Dulbecco's Modified Eagles Medium (DMEM) added with 10% (v/v) bovine serum, penicillin (final concentration, 100 U/ml) and streptomycin (final concentration, 0.1 mg/ml) in a humid environment under 5% CO2 and 95% air at 37° C. When the cells reached confluence (day 0), the medium was exchanged with DMEM added with 10% (v/v) fetal bovine serum (FBS), 1 μM dexamethasone, 0.5 mM 3-isobutyl-methyl-xanthine and 0.1 mg/ml insulin to allow for differentiation from fibroblast into adipocyte. The medium was exchanged with DMEM added with 10% (v/v) FBS on day 3, day 7 and day 11. On day 14, the cell differentiated into adipocyte were used for the experiment. […]
The protein concentration of each fraction was measured using BCA protein assay kit (Thermo Fisher Scientific, Waltham, Mass., USA). […] The immunoreactivity was detected using ECL kit (Invitrogen), and visualized using a chemical luminescence detection system (chemiluminescence detection system; GE Healthcare, Piscataway, N.J., USA). The signal density was measured using an image analysis software (Image Gauge software; GE Healthcare). […]
(A western blot detects proteins with antibodies after separation by electrophoresis.)

Assay [2] has as its system type 2 diabetes model mouse (C57BL/KsJ-lepr^db/lepr^db mouse). In words: Oral glucose tolerance test in type 2 diabetes model mouse. Type of assay: in vivo. To be noted: DCP-LA 0.001, 0.01, 0.1 mg/kg orally 30 min before glucose 2 g/kg, 0-90 min, FIG. 3B. As to the method: As type 2 diabetes model mouse, C57BL/KsJ-lepr^db/lepr^db mouse (female, 8-week-old) (CLEA Japan; Tokyo, Japan) was used.
(§2) OGTT was performed using the mouse starved for 12 hr. Glucose (2 g/ml/kg body weight) was administered by gavage, and the time point thereof was taken as 0 h. DCP-LA (0, 0.001, 0.01, 0.1 mg/kg) was orally administered 30 min before administration of glucose. The blood (10 μl) was collected from the tail vein at the time points of 0, 30, 60, and 90 min, and each plasma sample which was labeled with ABEE and prepared from the obtained blood was loaded on high performance liquid chromatography (HPLC) system (LC-10ATvp; Shimadzu Co., Kyoto, Japan). The glucose concentration was calculated from a peak area/concentration analytical curve prepared using the standard glucose solution.

In assay [3] the test system is 3T3L1-GLUT4myc adipocytes. As to the kind of experiment: Glucose uptake assay in 3T3L1-GLUT4myc adipocytes. It is filed as cell-based. Conditions: 2 hr. As to the method:
as §1
The cells were cultured in Dulbecco's Modified Eagles Medium (DMEM) added with 10% (v/v) bovine serum, penicillin (final concentration, 100 U/ml) and streptomycin (final concentration, 0.1 mg/ml) in a humid environment under 5% CO2 and 95% air at 37° C. […]
3T3L1-GLUT4myc adipocytes were incubated in Krebs-Ringer-HEPES buffer [136 mM NaCl, 4.7 mM KCl, 1.25 mM CaCl2, 1.25 mM MgSO4 and 20 mM HEPES, pH 7.5] containing 0.2% (w/v) bovine serum albumin (BSA) and added with 10 mM glucose at 37° C. for […]. […] ABEE-labeled glucose was detected using a fluorescence detector at an excitation wavelength 305 nm and a fluorescence wavelength 360 nm. The amount of glucose uptaken into the cells after incubation for 2 hr is calculated by subtracting the extracellular glucose concentration from the initial extracellular glucose concentration (10 mM).
3T3L1-GLUT4myc adipocytes were incubated in glucose-containing (10 mM) PBS in the presence or absence of a given concentration of DCP-LA for 2 hr, and extracellular glucose concentration was measured by HPLC. […]

Assay [4] concerns type 1 diabetes model mouse (STZ-treated C57BL/6J mouse). As to the kind of experiment: Oral glucose tolerance test in type 1 diabetes model mouse. Type of assay: in vivo. To be noted: DCP-LA 0.001, 0.01, 0.1 mg/kg orally 30 min before glucose 2 g/kg, 0-90 min, FIG. 3A. As to the method: Type 1 diabetes model mouse was prepared by intraperitoneal administration of streptozotocin (STZ; 250 mg/kg) to C57BL/6J mouse (8-week-old) (Japan SLC Inc.; Shizuoka, Japan). After 4 days from the STZ administration, an oral glucose tolerance test (OGTT) was performed.
as §2

Structures are written as SMILES.

As for `CCCCCC1CC1CC1CC1CCCCCCCC(=O)O` (centres unmarked) [DCP-LA, 8-[2-(2-pentyl-cyclopropylmethyl)-cyclopropyl]-octanoic acid], in assay [1], the “transport of GLUT4 onto the cellular membrane” value was “not promoted significantly”. In addition, the blood glucose level result in assay [2] and in assay [4] was “dose-dependently lower the blood glucose level” each time. In addition, in assay [3] (0.1 μM DCP-LA with 0.1 μM GF109203X, FIG. 1B), the “sugar uptake promoting action in the presence of PKCε inhibitor GF109203X” value is “not inhibited”. Besides, the “glucose uptake into the cells” value in assay [3] (3T3L1-GLUT4myc adipocytes, 10 mM glucose PBS, given concentrations of DCP-LA, HPLC, FIG. 1A) is “promote sugar uptake into the adipocytes in a bell-shaped concentration-dependent manner”.
